Data reported in ChEMBL document CHEMBL5241075, “Advancement of chimeric hybrid drugs to cure malaria infection: An overview with special emphasis on endoperoxide pharmacophores” (Eur J Med Chem, 2021).
One block for each compound: values may come before it.

How the values were obtained:
Plasmodium falciparum [1] = assay: Antimalarial activity against chloroquine resistant Plasmodium falciparum FcB1; assay type: functional, organism-based
Plasmodium falciparum [2] = assay: Antiplasmodial activity against Plasmodium falciparum FcM29; assay type: functional, organism-based
Plasmodium falciparum [3] = assay: Antiplasmodial activity against Plasmodium falciparum Nigerian; assay type: functional, organism-based
Plasmodium falciparum [4] = assay: Antiplasmodial activity against Plasmodium falciparum 3D7; assay type: functional, organism-based
Plasmodium falciparum [5] = assay: Antiplasmodial activity against Plasmodium falciparum K1; assay type: functional, organism-based
Plasmodium falciparum [6] = assay: Antiplasmodial activity against Plasmodium falciparum NF54; assay type: functional, organism-based
Plasmodium falciparum [7] = assay: Antiplasmodial activity against Plasmodium falciparum D10; assay type: functional, organism-based
Plasmodium falciparum [8] = assay: Resistance index, ratio of IC50 for antiplasmodial activity against Plasmodium falciparum K1 to IC50 for antiplasmodial activity against Plasmodium falciparum D10; assay type: functional
Plasmodium falciparum [9] = assay: Antiplasmodial activity against Plasmodium falciparum W2; assay type: functional, organism-based
Plasmodium falciparum [10] = assay: Antiplasmodial activity against Plasmodium falciparum D6; assay type: functional, organism-based
Plasmodium berghei = assay: Antimalarial activity against liver stage Plasmodium berghei; assay type: functional, organism-based
Caco-2 = assay: Cytotoxicity against human Caco-2 cells assessed as reduction in cell viability; assay type: functional
Plasmodium falciparum [11] = assay: Antiplasmodial activity against chloroquine resistant Plasmodium falciparum; assay type: functional, organism-based
HeLa = assay: Antiproliferative activity against human HeLa cells assessed as cell growth inhibition; assay type: functional, cell-based
[12] = Therapeutic index, ratio of IC50 for antiproliferative activity against human HeLa cells to IC50 for antiplasmodial activity against Plasmodium falciparum K1; assay type: toxicity, cell-based
Hemozoin = assay: Inhibition of Beta-hematin in Plasmodium falciparum
Plasmodium falciparum [13] = assay: Antiplasmodial activity against Plasmodium falciparum DD2; assay type: functional, organism-based
[14] = Stability of compound at pH 2 assessed as half life; assay type: physicochemical; conditions: buffer
Plasmodium falciparum [15] = assay: Antiplasmodial activity against Plasmodium falciparum TM91C235; assay type: functional, organism-based

Compound: CCOP(=O)(CCCN(O)C(=O)CCC(=O)N(CCCNC(=O)CC[C@H]1O[C@@H]2O[C@]3(C)CC[C@H]4[C@H](C)CC[C@@H]([C@H]1C)C24OO3)CCCNC(=O)CC[C@H]1O[C@@H]2O[C@]3(C)CC[C@H]4[C@H](C)CC[C@@H]([C@H]1C)C24OO3)OCC
IC50 (Plasmodium falciparum [1]): 0.36 µM

Compound: Clc1cc(NCCNC2CCC3(CC2)OOC2CCC=CC2O3)c2ncccc2c1 (stereo not drawn)
IC50 (Plasmodium falciparum [1]): 0.036 µM
IC50 (Plasmodium falciparum [2]): 0.036 µM
IC50 (Plasmodium falciparum [3]): 0.036 µM

Compound: C[C@H]1[C@@H](O)O[C@@H]2C[C@]3(C)CC[C@H]4[C@H](C)CC[C@@H]1[C@@]24OO3
EC50 (Plasmodium falciparum [4]; read-out: EC50): 0.0024 µM
IC50 (Plasmodium falciparum [5]; Plasmodium falciparum, K1): 0.003 µM
IC50 (Plasmodium falciparum [6]): < 0.007 µM
IC50 (Plasmodium falciparum [7]; Plasmodium falciparum, D10): 0.004 µM
Ratio IC50 (Plasmodium falciparum [8]): 0.75

Compound: C1CN(c2nc(N3CCOCC3)nc(N3CCC4(CC3)OOC3(OO4)C4CC5CC(C4)CC3C5)n2)CCO1
IC50 (Plasmodium falciparum [4]): 0.00412 µM

Compound: CCC1O[C@@H]2O[C@]3(C)CC[C@H]4[C@H](C)CC[C@@H]([C@H]1C)[C@@]24OO3 (stereo partly drawn)
IC50 (Plasmodium falciparum [9]): 0.29 ng/mL
IC50 (Plasmodium falciparum [10]): 1.09 ng/mL

Compound: COc1cc(NC(C)CCCNC(=O)C2CCC3(CC2)OOC2(OO3)C3CC4CC(C3)CC2C4)c2nccc(Br)c2c1 (stereo not drawn)
EC50 (Plasmodium falciparum [9]): 0.061 µM
EC50 (Plasmodium berghei): 4.44 µM
CC50 (Caco-2): > 50000 µM

Compound: CC(CCC1OOC(C)(C)C(C)(CI)O1)NCCNc1ccnc2cc(Cl)ccc12 (stereo not drawn)
IC50 (Plasmodium falciparum [1]): 0.188 µM
IC50 (Plasmodium falciparum [2]): 0.188 µM
IC50 (Plasmodium falciparum [3]): 0.188 µM

Compound: C[C@@H]1CC[C@@H]2[C@]34OO[C@@](C)(CC[C@@H]13)O[C@H]4OC(Nc1cccc(F)c1)[C@@]2(C)Br (stereo partly drawn)
IC50 (Plasmodium falciparum [11]): 0.16 ng/mL

Compound: C[C@@H]1CC[C@H]2[C@@H](C)C(OCc3ccc(C(=O)N(CCCCNc4ccnc5cc(Cl)ccc45)CC(=O)NC4CCCCC4)cc3)O[C@@H]3O[C@]4(C)CC[C@@H]1[C@]32OO4 (stereo partly drawn)
IC50 (Plasmodium falciparum [5]; Plasmodium falciparum, K1): 0.021 µM
IC50 (Plasmodium falciparum [7]; Plasmodium falciparum, D10): 0.035 µM
Ratio IC50 (Plasmodium falciparum [8]): 0.88
IC50 (HeLa; Homo sapiens, HeLa): 0.169 µM
selectivity ratio ([12]; HeLa cells, read-out: Ratio IC50): 8
IC50 (Hemozoin): 0.31 equiv

Compound: COc1ccc2nc3cc(Cl)ccc3c(NCCNCCO[C@H]3O[C@@H]4O[C@]5(C)CC[C@H]6[C@H](C)CC[C@@H]([C@H]3C)[C@@]46OO5)c2c1
IC50 (Plasmodium falciparum [6]): 0.0026 µM
IC50 (Plasmodium falciparum [13]): 0.0353 µM

Compound: COC1(C(F)(F)F)O[C@@H]2O[C@]3(C)CC[C@H]4[C@H](C)CC[C@@H]([C@H]1C)[C@@]24OO3 (stereo partly drawn)
IC50 (Plasmodium falciparum [11]): 0.0008 µM
half-life [14]: 27.5 days

Compound: C[C@@H]1CC[C@H]2[C@@H](C)C(c3ccco3)O[C@@H]3O[C@]4(C)CC[C@@H]1[C@]32OO4 (stereo partly drawn)
IC50 (Plasmodium falciparum [6]): 0.0014 µM

Compound: C[C@@H]1CC[C@H]2[C@@H](C)C(OCc3ccc(C(=O)N(CCNc4ccnc5cc(Cl)ccc45)CC(=O)NC(C)(C)C)cc3)O[C@@H]3O[C@]4(C)CC[C@@H]1[C@]32OO4.O=C(O)CC(O)(CC(=O)O)C(=O)O (stereo partly drawn)
IC50 (Plasmodium falciparum [5]): 0.018 µM
IC50 (Plasmodium falciparum [7]): 0.024 µM
Ratio IC50 (Plasmodium falciparum [8]): 0.7
IC50 (HeLa; hela): 0.356 µM
Ratio IC50 [12]: 20
IC50 (Hemozoin): 0.4 equiv

Compound: C1CCC2(C1)OOC1(CCN(c3nc(N4CCOCC4)nc(N4CCOCC4)n3)CC1)OO2
IC50 (Plasmodium falciparum [4]): 0.00552 µM

Compound: COc1ccc2nc3cc(Cl)ccc3c(NCCCN(C)CCO[C@H]3O[C@@H]4O[C@]5(C)CC[C@H]6[C@H](C)CC[C@@H]([C@H]3C)[C@@]46OO5)c2c1
IC50 (Plasmodium falciparum [6]): 0.0122 µM
IC50 (Plasmodium falciparum [13]): 0.0385 µM

Compound: CCOC1(C(F)(F)F)O[C@@H]2O[C@]3(C)CC[C@H]4[C@H](C)CC[C@@H]([C@H]1C)[C@@]24OO3 (stereo partly drawn)
IC50 (Plasmodium falciparum [11]): 0.0033 µM
half-life [14]: 20.8 days

Compound: COc1cc(NC(C)CCCNC(=O)C2CCC3(CC2)OOC2(OO3)C3CC4CC(C3)CC2C4)c2nccc(Cl)c2c1 (stereo not drawn)
EC50 (Plasmodium falciparum [9]): 0.075 µM
EC50 (Plasmodium berghei): 2.81 µM
CC50 (Caco-2): > 50000 µM

Compound: C[C@@H]1C[C@@H]2CC3(CC[C@@H]2C2CC[C@@]4(C)C(CC[C@@H]4[C@H](C)CCCNCCNc4ccnc5cc(Cl)ccc45)C21)OOC1(CCCCC1)OO3 (stereo partly drawn)
IC50 (Plasmodium falciparum [9]): 0.0229 µM
IC90 (Plasmodium falciparum [9]): 0.0303 µM
IC50 (Plasmodium falciparum [10]): 0.0335 µM
IC90 (Plasmodium falciparum [10]): 0.103 µM
IC50 (Plasmodium falciparum [15]): 0.0302 µM
IC90 (Plasmodium falciparum [15]): 0.16 µM

IC50 (Plasmodium falciparum [6]): 0.0073 µM
IC50 (Plasmodium falciparum [13]): 0.142 µM
Compound: COc1ccc2nc3cc(Cl)ccc3c(NCCN3CCNCC3)c2c1

Compound: Clc1cc(NCCCN[C@@H]2C[C@@H]3CCC4(OO[C@@]5(c6ccccc6)CC(c6ccccc6)=C[C@H]5O4)[C@@H]3C2)c2ncccc2c1 (stereo partly drawn)
IC50 (Plasmodium falciparum [1]): 0.031 µM
IC50 (Plasmodium falciparum [2]): 0.031 µM
IC50 (Plasmodium falciparum [3]): 0.031 µM

Compound: CC(=O)O[C@H]1CC2C(C3CC[C@H]([C@H](C)CCC(=O)NCCNc4ccnc5cc(Cl)ccc45)[C@]31C)[C@H](OC(C)=O)C[C@@H]1CC3(CC[C@H]21)OOC1(CCCCC1)OO3 (stereo partly drawn)
IC50 (Plasmodium falciparum [9]): 0.00447 µM
IC90 (Plasmodium falciparum [9]): 0.0105 µM
IC50 (Plasmodium falciparum [10]): 0.00653 µM
IC90 (Plasmodium falciparum [10]): 0.0106 µM
IC50 (Plasmodium falciparum [15]): 0.00854 µM
IC90 (Plasmodium falciparum [15]): 0.0172 µM

Compound: COc1ccc2nc3cc(Cl)ccc3c(NCCN3CCN(CCO[C@H]4O[C@@H]5O[C@]6(C)CC[C@H]7[C@H](C)CC[C@@H]([C@H]4C)[C@@]57OO6)CC3)c2c1
IC50 (Plasmodium falciparum [6]): 0.0141 µM
IC50 (Plasmodium falciparum [13]): 0.0504 µM
